Reference: paper PMC10740061 (Food Chemistry: X, 2023)
Marks after values point to notes of the source that are not given here.

System: Caco-2 monolayer
Experiment: Caco-2 monolayer transmembrane transport, apical to basolateral
Format: in vitro ADME, human
Settings: for PappAtoB: 40 µM flavonoid, 6 h, A to B, mean ± SD (n = 3); for apparent permeability coefficient (in words): comparison among the dietary flavonoids, Table 2
[1] = RD (rice flour digested products) 400 µg/mL
[2] = WD (wheat flour digested products) 400 µg/mL

PappAtoB [1] | Increase in PappAtoB (RD vs no substrate) | PappAtoB [2] | Increase in PappAtoB (WD vs no substrate) | change of apparent permeability coefficient (in words) (RD group vs no substrate) | change of apparent permeability coefficient (in words) (WD group vs no substrate) | PappAtoB (No substrate) | Structure (SMILES) | apparent permeability coefficient (in words)
8.76 ± 0.01^b × 10^-6 cm/s | 0.28 | 12.01 ± 0.49^c × 10^-6 cm/s | 0.75 |  |  |  | O=c1c(O)c(-c2ccccc2)oc2cc(O)cc(O)c12 [Galangin] | 
12.01 ± 0.01^a × 10^-6 cm/s | −0.49 | 22.68 ± 0.95^b × 10^-6 cm/s | −0.05 | decrease in permeability |  |  | COc1ccc(-c2coc3cc(O)ccc3c2=O)cc1 [Formononetin] | notably higher apparent permeability coefficients
1.98 ± 0.02^a × 10^-6 cm/s | −0.73 | 12.18 ± 0.53^c × 10^-6 cm/s | 0.67 | decrease in permeability |  |  | COc1ccc([C@@H]2CC(=O)c3c(O)cc(O)cc3O2)cc1O [Hesperetin] | 
5.40 ± 0.09^a × 10^-6 cm/s | −0.31 | 11.68 ± 0.07^c × 10^-6 cm/s | 0.50 |  |  | 7.78 ± 0.05^b × 10^-6 cm/s | COc1cc(-c2oc3cc(O)cc(O)c3c(=O)c2O[C@@H]2O[C@H](CO[C@@H]3O[C@@H](C)[C@H](O)[C@@H](O)[C@H]3O)[C@@H](O)[C@H](O)[C@H]2O)ccc1O [Isorhamnetin-3-O-rutinoside] | 
6.64 ± 0.03^a × 10^-6 cm/s | −0.29 | 11.42 ± 0.91^c × 10^-6 cm/s | 0.23 |  |  |  | COc1cc(-c2oc3cc(O)cc(O)c3c(=O)c2O)ccc1O [Isorhamnetin] | 
3.13 ± 0.01^b × 10^-6 cm/s | 0.90 | 4.18 ± 0.06^c × 10^-6 cm/s | 1.54 |  |  |  | O=c1cc(-c2ccc(O)cc2)oc2cc(O)cc(O)c12 [Apigenin] | comparatively poor
18.75 ± 0.09^b × 10^-6 cm/s | 0.67 |  | −0.04 |  |  | 11.22 ± 0.06^a × 10^-6 cm/s | Oc1cc(O)c2c(c1)O[C@H](c1ccc(O)c(O)c1)[C@@H](O)C2 [(+)-Catechin] | notably higher apparent permeability coefficients
14.45 ± 0.09^b × 10^-6 cm/s | 0.21 | 22.89 ± 0.09^c × 10^-6 cm/s | 0.92 |  |  |  | O=c1c(-c2ccc(O)cc2)coc2cc(O)cc(O)c12 [Genistein] | 
9.07 ± 0.01^b × 10^-6 cm/s | 0.63 | 17.79 ± 0.03^c × 10^-6 cm/s | 2.21 |  |  |  | O=c1c(O)c(-c2cc(O)c(O)c(O)c2)oc2cc(O)cc(O)c12 [Myricetin] | 
37.30 ± 0.04^c × 10^-6 cm/s | 0.62 | 27.24 ± 0.45^b × 10^-6 cm/s | 0.18 |  |  |  | Oc1cc(O)c2c(c1)O[C@H](c1ccc(O)c(O)c1)[C@H](O)C2 [(-)-Epicatechin] | notably higher apparent permeability coefficients

Second part, the compound before the results:

Structure (SMILES) | PappAtoB [1] | Increase in PappAtoB (RD vs no substrate) | PappAtoB [2] | Increase in PappAtoB (WD vs no substrate) | change of apparent permeability coefficient (in words) (RD group vs no substrate) | change of apparent permeability coefficient (in words) (WD group vs no substrate) | PappAtoB (No substrate) | apparent permeability coefficient (in words)
C[C@@H]1O[C@@H](O[C@H]2[C@H](Oc3cc(O)c4c(c3)O[C@H](c3ccc(O)cc3)CC4=O)O[C@H](CO)[C@@H](O)[C@@H]2O)[C@H](O)[C@H](O)[C@H]1O [Naringin] | 1.80 ± 0.01^b × 10^-6 cm/s | 0.34 | 2.38 ± 0.09^c × 10^-6 cm/s | 0.77 |  |  |  | 
O=c1cc(-c2ccc(O)cc2)oc2cc(O[C@@H]3O[C@H](CO)[C@@H](O)[C@H](O)[C@H]3O)cc(O)c12 [Apigenin-7-O-glucoside] | 6.37 ± 0.02^a × 10^-6 cm/s | 0.11 | 11.24 ± 0.64^b × 10^-6 cm/s | 0.95 |  |  |  | 
O=c1cc(-c2ccccc2)oc2cc(O)c(O)c(O)c12 [Baicalein] | 2.28 ± 0.01^a × 10^-6 cm/s | −0.21 | 3.79 ± 0.10^c × 10^-6 cm/s | 0.31 | decrease in the apparent permeability coefficient | increase |  | comparatively poor
O=C1c2c(O)cc(O)cc2O[C@H](c2cc(O)c(O)c(O)c2)[C@H]1O [Dihydromyricetin] | 16.38 ± 0.03^b × 10^-6 cm/s | −0.05 | 14.82 ± 0.15^a × 10^-6 cm/s | −0.14 |  |  |  | notably higher apparent permeability coefficients
O=c1cc(-c2ccc(O)cc2)oc2c([C@@H]3O[C@H](CO)[C@@H](O)[C@H](O)[C@H]3O)c(O)cc(O)c12 [Vitexin] | 25.87 ± 0.04^b × 10^-6 cm/s | −0.09 | 15.54 ± 0.46^a × 10^-6 cm/s | −0.46 |  |  |  | highest apparent permeability coefficient
C[C@@H]1O[C@@H](Oc2c(-c3ccc(O)c(O)c3)oc3cc(O)cc(O)c3c2=O)[C@H](O)[C@H](O)[C@H]1O [Quercitrin] | 1.47 ± 0.05^a × 10^-6 cm/s | −0.73 | 9.61 ± 0.28^c × 10^-6 cm/s | 0.72 |  |  |  | 
O=c1c(O)c(-c2ccc(O)c(O)c2)oc2cc(O)cc(O)c12 [Quercetin] | 6.54 ± 0.03^a × 10^-6 cm/s | −0.29 |  | 0.18 |  |  |  | 
O=C1c2c(O)cc(O)cc2OC(c2ccc(O)c(O)c2)C1O (stereo not shown) [Taxifolin] | 15.66 ± 0.09^a × 10^-6 cm/s | −0.37 | 17.71 ± 0.43^b × 10^-6 cm/s | −0.29 |  |  |  | notably higher apparent permeability coefficients
OC[C@H]1O[C@@H](Oc2cc3c(O)cc(O)cc3[o+]c2-c2ccc(O)c(O)c2)[C@H](O)[C@@H](O)[C@@H]1O [Cyanidin-3-O-glucoside] | 7.85 ± 0.07^a × 10^-6 cm/s | −0.01 | 7.97 ± 0.06^a × 10^-6 cm/s | 0.00 |  |  | 7.96 ± 0.08^a × 10^-6 cm/s | 
O=c1c(O)c(-c2ccc(O)cc2)oc2cc(O[C@@H]3O[C@H](CO)[C@@H](O)[C@H](O)[C@H]3O)cc(O)c12 [Kaempferol-7-O-β-glucoside] | 1.26 ± 0.02^b × 10^-6 cm/s | 0.96 | 3.67 ± 0.15^c × 10^-6 cm/s | 4.71 |  |  | 0.64 ± 0.05^a × 10^-6 cm/s | comparatively poor
O=C1C[C@@H](c2ccc(O)cc2)Oc2cc(O)cc(O)c21 [Naringenin] | 5.43 ± 0.06^a × 10^-6 cm/s | −0.57 | 11.15 ± 1.54^b × 10^-6 cm/s | −0.12 |  |  |  | notably higher apparent permeability coefficients
